Laboratory results as given in ChEMBL document CHEMBL2417452, “Psammaplysin F: a unique inhibitor of bacterial chromosomal partitioning” (Bioorg Med Chem Lett, 2013).

How the values were obtained:
Staphylococcus aureus [1] = test: Disruption of plasma membrane integrity in Staphylococcus aureus 1H assessed as extracellular ATP release at 20 uM after 15 to 120 mins by BacTiter-Glo microbial assay relative to control; assay type: functional
Staphylococcus aureus [2] = test: Antibacterial activity against Staphylococcus aureus NCTC 6571 assessed as growth inhibition at 50 uM after 5 hrs by BacTiter-Glo microbial assay relative to control; assay type: functional
Pseudomonas aeruginosa = test: Antibacterial activity against Pseudomonas aeruginosa PAO1 assessed as growth inhibition at 50 uM after 5 hrs by BacTiter-Glo microbial assay relative to control; assay type: functional
Salmonella typhimurium = test: Antibacterial activity against Salmonella typhimurium assessed as growth inhibition at 50 uM after 5 hrs by BacTiter-Glo microbial assay relative to control; assay type: functional; conditions: Salmonella enterica subsp. enterica serovar Typhimurium
Enterococcus faecalis [3] = test: Antibacterial activity against Enterococcus faecalis NCTC 775 after 20 to 24 hrs by two-fold broth microdilution method; assay type: functional, organism-based
Staphylococcus aureus [4] = test: Antibacterial activity against methicillin-resistant Staphylococcus aureus USA-300 after 20 to 24 hrs by two-fold broth microdilution method; assay type: functional, organism-based
Staphylococcus aureus [5] = test: Antibacterial activity against Staphylococcus aureus NCTC 6571 after 20 to 24 hrs by two-fold broth microdilution method; assay type: functional, organism-based
Bacillus cereus [6] = test: Antibacterial activity against Bacillus cereus NCTC 7464 after 20 to 24 hrs by two-fold broth microdilution method; assay type: functional, organism-based
Staphylococcus aureus [7] = test: Antibacterial activity against Staphylococcus aureus 1H after 20 to 24 hrs by two-fold broth microdilution method; assay type: functional, organism-based
Klebsiella pneumoniae = test: Antibacterial activity against Klebsiella pneumoniae NCIB 8805 assessed as growth inhibition at 50 uM after 5 hrs by BacTiter-Glo microbial assay relative to control; assay type: functional
Bacillus cereus [8] = test: Antibacterial activity against Bacillus cereus NCTC 7464 assessed as growth inhibition at 50 uM after 5 hrs by BacTiter-Glo microbial assay relative to control; assay type: functional
Staphylococcus aureus [9] = test: Antibacterial activity against methicillin-resistant Staphylococcus aureus MW2 assessed as growth inhibition at 50 uM after 5 hrs by BacTiter-Glo microbial assay relative to control; assay type: functional
Staphylococcus aureus [10] = test: Antibacterial activity against methicillin-resistant Staphylococcus aureus USA-300 assessed as growth inhibition at 50 uM after 5 hrs by BacTiter-Glo microbial assay relative to control; assay type: functional
Enterococcus faecalis [11] = test: Antibacterial activity against Enterococcus faecalis NCTC 775 assessed as growth inhibition at 50 uM after 5 hrs by BacTiter-Glo microbial assay relative to control; assay type: functional
Staphylococcus aureus [12] = test: Antibacterial activity against methicillin-resistant Staphylococcus aureus MW2 after 20 to 24 hrs by two-fold broth microdilution method; assay type: functional, organism-based
Staphylococcus aureus [13] = test: Antibacterial activity against penicillin-resistant Staphylococcus aureus 1H assessed as growth inhibition at 50 uM after 5 hrs by BacTiter-Glo microbial assay relative to control; assay type: functional
Escherichia coli = test: Antibacterial activity against Escherichia coli assessed as growth inhibition at 50 uM after 5 hrs by BacTiter-Glo microbial assay relative to control; assay type: functional

| Molecule | fold change (FC) (Staphylococcus aureus [1]) | growth inhibition (GI) (Staphylococcus aureus [2]) [%] | growth inhibition (GI) (Pseudomonas aeruginosa) [%] | growth inhibition (GI) (Salmonella typhimurium) [%] | MIC (Enterococcus faecalis [3]) [µM] | MIC (Staphylococcus aureus [4]) [µM] | MIC (Staphylococcus aureus [5]) [µM] | MIC (Bacillus cereus [6]) [µM] | MIC (Staphylococcus aureus [7]) [µM] | growth inhibition (GI) (Klebsiella pneumoniae) [%] | growth inhibition (GI) (Bacillus cereus [8]) [%] | growth inhibition (GI) (Staphylococcus aureus [9]) [%] | growth inhibition (GI) (Staphylococcus aureus [10]) [%] | growth inhibition (GI) (Enterococcus faecalis [11]) [%] | MIC (Staphylococcus aureus [12]) [µM] | growth inhibition (GI) (Staphylococcus aureus [13]) [%] | growth inhibition (GI) (Escherichia coli) [%] |
| --- | --- | --- | --- | --- | --- | --- | --- | --- | --- | --- | --- | --- | --- | --- | --- | --- | --- |
| COC1=C(Br)C[C@]2(OC=C1Br)ON=C(C(=O)NCCCOc1c(Br)cc(CC[N+](C)(C)C)cc1Br)[C@@H]2O.O=C([O-])C(F)(F)F | 2 |  |  |  |  |  |  |  |  |  |  |  |  |  |  |  |  |
| GENTAMICIN |  | 95 | 86 | 82 | 25 | 3.1 | 0.8 | 1.6 | 1.6 | 83 | 82 | 93 | 90 | 77 | 1.6 | 89 | 87 |
